Test results taken from patent US20230322792A1, “CDK9 INHIBITORS” (Biolexis Therapeutics, Inc., priority 2022, published 2023).

target: CDK9/CycT1 (Homo sapiens (Human), UniProt P50750); assay: ADP-Glo Kinase Assay; type: biochemical
Description: ADP-Glo assay kit was purchased from Promega and the CDK9/CycT1 protein and PDKtide substrate were purchased from SignalChem. […] The reaction is started by pre-incubating 4 μL of protein (20 nM), 2 μL of substrate (100 μM), and 2 μL of serial diluted drug in 1× assay buffer (50 mM HEPES, 3 mM MgCl2, 3 mM MnCl2, and 1 mM DTT) for 30 minutes. After pre-incubating, 4 μL of ATP (1 μM) is added to each well and incubated for an additional 90 minutes. The ADP-Glo Reagent (10 μL) and Kinase Detection Reagent (20 μL) are added to each well and incubated as recommended by Promega. The reaction is quantified by measuring luminescence and the IC50 is calculated using GraphPad Prism software.

Sequence of CDK9/CycT1 (P50750 whole entry): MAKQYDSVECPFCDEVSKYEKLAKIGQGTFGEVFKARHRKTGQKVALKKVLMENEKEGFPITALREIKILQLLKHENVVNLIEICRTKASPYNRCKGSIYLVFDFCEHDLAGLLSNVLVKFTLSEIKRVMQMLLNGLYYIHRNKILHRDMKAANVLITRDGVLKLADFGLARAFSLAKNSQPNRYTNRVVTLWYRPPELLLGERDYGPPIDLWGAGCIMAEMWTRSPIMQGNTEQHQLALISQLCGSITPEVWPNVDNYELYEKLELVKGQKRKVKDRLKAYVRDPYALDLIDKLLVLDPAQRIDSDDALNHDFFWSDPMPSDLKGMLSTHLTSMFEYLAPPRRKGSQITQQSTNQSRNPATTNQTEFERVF
Sequence of CDK9/CycT1 (O60563 whole entry partner): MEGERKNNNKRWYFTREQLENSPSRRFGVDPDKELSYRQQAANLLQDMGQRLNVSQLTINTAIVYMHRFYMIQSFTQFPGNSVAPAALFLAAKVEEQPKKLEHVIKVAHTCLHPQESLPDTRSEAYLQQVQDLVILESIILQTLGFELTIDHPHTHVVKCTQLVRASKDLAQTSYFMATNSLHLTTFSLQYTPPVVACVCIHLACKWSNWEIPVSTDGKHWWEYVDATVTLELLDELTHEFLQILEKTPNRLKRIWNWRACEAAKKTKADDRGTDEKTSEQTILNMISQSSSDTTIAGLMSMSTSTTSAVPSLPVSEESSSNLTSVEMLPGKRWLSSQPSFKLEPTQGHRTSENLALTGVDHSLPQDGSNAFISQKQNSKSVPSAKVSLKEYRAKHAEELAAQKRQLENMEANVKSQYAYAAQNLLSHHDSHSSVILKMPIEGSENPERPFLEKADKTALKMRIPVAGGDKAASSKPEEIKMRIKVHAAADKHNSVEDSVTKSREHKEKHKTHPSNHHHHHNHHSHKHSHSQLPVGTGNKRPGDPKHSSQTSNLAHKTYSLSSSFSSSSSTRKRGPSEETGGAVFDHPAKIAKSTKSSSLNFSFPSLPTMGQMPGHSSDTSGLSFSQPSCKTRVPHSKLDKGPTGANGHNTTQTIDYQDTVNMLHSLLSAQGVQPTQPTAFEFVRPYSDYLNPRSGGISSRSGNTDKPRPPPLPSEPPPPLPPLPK

SMILES | IC50
O[C@@H]1CNCC[C@H]1CNc1nccc(-c2ccn3ncc(C4CCC4)c3n2)n1 (relative stereo) [Compound I-5, trans-5-[2-(3-hydroxypiperidin-4-yl)methylaminopyrimidin-4-yl]-3-cyclobutylpyrazolo[1,5-a]pyrimidine] | 1000 to 5000 nM
O[C@@H]1CNCC[C@H]1CNc1nccc(-c2ccn3nccc3n2)n1 (relative stereo) [Compound I-7, trans-5-[2-(3-hydroxypiperidin-4-yl)methylaminopyrimidin-4-yl]pyrazolo[1,5-a]pyrimidine] | 1000 to 5000 nM
c1cc(-c2ccn3ncc(C4CC4)c3n2)nc(N[C@H]2CC[C@H](NC3CCOCC3)CC2)n1 [Compound I-1, trans-N^1-[4-[(3-cyclopropyl)pyrazolo[1,5-a]pyrimidin-5-yl]pyrimidin-2-yl]-N^4-(tetrahydro-2H-pyran-4-yl)cyclohexane-1,4-diamine] | 1000 to 5000 nM
c1cc(-c2ccn3ncc(C4CCC4)c3n2)nc(N[C@H]2CC[C@H](NC3CCOCC3)CC2)n1 [Compound I-2, trans-N^1-[4-[(3-cyclobutyl)pyrazolo[1,5-a]pyrimidin-5-yl]pyrimidin-2-yl]-N^4-(tetrahydro-2H-pyran-4-yl)cyclohexane-1,4-diamine] | 1000 to 5000 nM
c1cc(-c2ccn3nccc3n2)nc(NC2CCNCC2)n1 [Compound I-8, trans-5-[2-(piperidin-4-yl)aminopyrimidin-4-yl]pyrazolo[1,5-a]pyrimidine] | 1000 to 5000 nM
c1cc(-c2ccn3nccc3n2)nc(N[C@H]2CC[C@H](NC3CCOCC3)CC2)n1 [Compound I-10, trans-N^1-[4-[pyrazolo[1,5-a]pyrimidin-5-yl]pyrimidin-2-yl]-N^4-(tetrahydro-2H-pyran-4-yl)cyclohexane-1,4-diamine] | 1000 to 5000 nM
Cc1cc2nc(-c3ccnc(N[C@H]4CC[C@H](N)C4)n3)ccn2n1 [Compound I-13, (1S, 3S)-[3-[4-[2-methylpyrazolo[1,5-a]pyrimidin-5-yl]pyrimidin-2-yl]aminocyclopentan-1-yl]-1,3-diamine] | 5000 to 10000 nM
CC(C)c1cnn2ccc(-c3ccnc(N[C@H]4CC[C@H](N)C4)n3)nc12 [Compound I-14, (1S, 3S)-[3-[4-[3-isopropylpyrazolo[1,5-a]pyrimidin-5-yl]pyrimidin-2-yl]aminocyclopentan-1-yl]-1,3-diamine] | < 1000 nM

Next, values leading:

IC50 | SMILES
< 1000 nM | O[C@@H]1CNCC[C@H]1CNc1nccc(-c2ccn3ncc(C4CC4)c3n2)n1 (relative stereo) [Compound I-4, trans-5-[2-(3-hydroxypiperidin-4-yl)methylaminopyrimidin-4-yl]-3-cyclopropylpyrazolo[1,5-a]pyrimidine]
< 1000 nM | CC(C)c1cnn2ccc(-c3ccnc(NC[C@@H]4CCNC[C@H]4O)n3)nc12 (relative stereo) [Compound I-6, trans-5-[2-(3-hydroxypiperidin-4-yl)methylaminopyrimidin-4-yl]-3-isopropylpyrazolo[1,5-a]pyrimidine]
< 1000 nM | CC(C)c1cnn2ccc(-c3ccnc(N[C@H]4CC[C@H](NC5CCOCC5)CC4)n3)nc12 [Compound I-3, trans-N^1-[4-[(3-isopropyl)pyrazolo[1,5-a]pyrimidin-5-yl]pyrimidin-2-yl]-N^4-(tetrahydro-2H-pyran-4-yl)cyclohexane-1,4-diamine]
< 1000 nM | N[C@H]1CC[C@@H](Nc2nccc(-c3ccn4nccc4n3)n2)C1 [Compound I-9, (1S, 3R)-[3-[4-[pyrazolo[1,5-a]pyrimidin-5-yl]pyrimidin-2-yl]aminocyclopentan-1-yl]-1,3-diamine]
< 1000 nM | N[C@H]1CC[C@H](Nc2nccc(-c3ccn4nccc4n3)n2)C1 [Compound I-11, (1S, 3S)-[3-[4-[pyrazolo[1,5-a]pyrimidin-5-yl]pyrimidin-2-yl]aminocyclopentan-1-yl]-1,3-diamine]
< 1000 nM | Cc1cnn2ccc(-c3ccnc(N[C@H]4CC[C@H](N)C4)n3)nc12 [Compound I-12, (1S, 3S)-[3-[4-[3-methylpyrazolo[1,5-a]pyrimidin-5-yl]pyrimidin-2-yl]aminocyclopentan-1-yl]-1,3-diamine]
